This passage reports IC50 results from ChEMBL document CHEMBL1151217, “New cytotoxic terpenoids from the wood of Vepris punctata from the Madagascar Rainforest” (J Nat Prod, 2004).

SMILES strings stand for the structures. Converted amounts (≈) assume the structure as drawn.

For the experiment, the system named is A2780. Description: Cytotoxicity against human A2780 cells. In kind it is functional, cell-based.

For orientation: IC50 means the concentration that gives 50% inhibition. A lower IC50 goes with greater potency. Turning to `C=C(C)[C@@H]1CC[C@]2(C)CC[C@]3(C)[C@H](CC[C@@H]4[C@@]5(C)CC[C@H](O)C(C)(C)[C@@H]5CC[C@]43C)[C@@H]12` [LUPEOL], half-maximal inhibition (IC50) required 26.4 µg/mL (≈ 61.9 µM).

With `C=C(C)[C@@H]1CC[C@]2(C)CC[C@]3(C)[C@H](CC[C@@H]4[C@@]5(C)CC[C@H](OC(C)=O)C(C)(C)[C@@H]5CC[C@]43C)[C@@H]12` [LUPENYL ACETATE], the IC50 was determined as 22.6 µg/mL.

For the compound `CC1=C2C/C=C(\C)CC/C=C(\C)C[C@@H]2OC1=O` [GLECHOMANOLIDE], the concentration for half-maximal inhibition (IC50) is 5.3 µg/mL (≈ 22.8 µM).

For the compound `CC(=O)O[C@H]1O[C@H]2C[C@@]13CC=C1[C@]4(C)[C@@H]5O[C@@H]5[C@H]5C(C)(C)[C@H](O)CC[C@]5(C)[C@H]4CC[C@@]1(C)[C@@H]3CC2(C)C`, the half-maximal inhibitory concentration (IC50) came to 21.5 µg/mL (≈ 41.9 µM).

Regarding `C[C@H]1[C@H](C)CC[C@]2(C)CC[C@]3(C)C(=CC[C@@H]4[C@@]5(C)CC[C@H](O)C(C)(C)[C@@H]5CC[C@]43C)[C@H]12`, the half-maximal inhibitory concentration (IC50) was 20.6 µg/mL (≈ 48.3 µM).

Regarding `CC1(C)CC[C@]2(C)CC=C3[C@]4(C)CC[C@H]5C(C)(C)[C@@H](O)CC[C@]5(C)[C@H]4CC[C@@]3(C)[C@@H]2C1` [TARAXEROL], it took 21.8 µg/mL (≈ 51.1 µM) to reach half-maximal inhibition (IC50).

With `CC1(C)CC[C@]2(C)CC=C3[C@]4(C)CC[C@H]5C(C)(C)[C@H](O)CC[C@]5(C)[C@H]4CC[C@@]3(C)[C@@H]2C1`, the half-maximal inhibitory concentration (IC50) was found to be 24.4 µg/mL (≈ 57.2 µM).

In turn, `CC1=C2C[C@H]3O[C@]3(C)CC[C@H]3O[C@@]3(C)C[C@@H]2OC1=O` registered an IC50 of 3.8 µg/mL (≈ 14.4 µM).

`C=C[C@]1(C)C[C@@H]2OC(=O)C(C)=C2C[C@H]1C(=C)C` [ISOGERMAFURENOLIDE] had a 50% inhibitory concentration (IC50) of 4.5 µg/mL (≈ 19.4 µM).

The compound `CC(C)=C1C/C=C(\C)CC/C=C(\C)CC1` registered an IC50 of 6.4 µg/mL (≈ 31.3 µM).
